Test results reported in ChEMBL document CHEMBL1201862, “PubChem BioAssay data set” (2004).
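Compound exposure: 48 hours, 5 concentrations, 96-well plates. Abbreviation: GI50, concentration required for 50% inhibition of growth.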 Active and inactive are the calls of the source. Rule as the data show it: active = GI50 up to about 1.1 µM and inactive = higher.

What was measured:
Experiment in all cases: NCI-60 cell line screen, 48 h
TK-10 = system: TK-10
MDA-N = system: MDA-N
SK-MEL-2 = system: SK-MEL-2
SW-620 = system: SW-620
SK-OV-3 = system: SK-OV-3
HOP-92 = system: HOP-92
HCC 2998 = system: HCC 2998
SK-MEL-5 = system: SK-MEL-5
SK-MEL-28 = system: SK-MEL-28
OVCAR-3 = system: OVCAR-3
U-251 = system: U-251
UACC-257 = system: UACC-257
DU-145 = system: DU-145
HCT-116 = system: HCT-116
SNB-75 = system: SNB-75
NCI-H23 = system: NCI-H23
NCI-H522 = system: NCI-H522
IGROV-1 = system: IGROV-1
SR = system: SR
BT-549 = system: BT-549

Measured: GI50

Cc1[nH]c(=O)nc(NCCNCCO)c1C(=O)Nc1c2ccccc2nc2ccccc12
inactive: TK-10 > 100 µM | MDA-N > 100 µM | SK-MEL-2 > 100 µM | SW-620 > 100 µM | SK-OV-3 > 100 µM | HOP-92 > 100 µM | HCC 2998 > 100 µM | SK-MEL-5 > 100 µM | SK-MEL-28 > 100 µM | OVCAR-3 > 100 µM | U-251 > 100 µM | UACC-257 > 100 µM | DU-145 > 100 µM | HCT-116 > 100 µM | SNB-75 > 100 µM | NCI-H23 > 100 µM | NCI-H522 > 100 µM | IGROV-1 > 100 µM

CC1(C)N=C(/C(C#N)=[N+](/[O-])C(=O)c2ccccc2)C(C)(C)N1O
inactive: TK-10 > 100 µM | MDA-N > 100 µM | SK-MEL-2 > 100 µM | SW-620 > 100 µM | SK-OV-3 > 100 µM | HOP-92 > 100 µM | HCC 2998 > 100 µM | SK-MEL-5 > 100 µM | SK-MEL-28 > 100 µM | OVCAR-3 > 100 µM | U-251 > 100 µM | UACC-257 > 100 µM | DU-145 > 100 µM | HCT-116 > 100 µM | SR > 100 µM | SNB-75 > 100 µM | NCI-H23 > 100 µM | IGROV-1 > 100 µM

CC(N)Cc1ccc(F)cc1 (centres undefined)
inactive: TK-10 > 100 µM | SK-MEL-2 > 100 µM | SW-620 > 100 µM | SK-OV-3 > 100 µM | HOP-92 > 100 µM | HCC 2998 > 100 µM | SK-MEL-5 > 100 µM | SK-MEL-28 > 100 µM | OVCAR-3 > 100 µM | U-251 > 100 µM | UACC-257 > 100 µM | HCT-116 > 100 µM | SR > 100 µM | SNB-75 > 100 µM | NCI-H23 > 100 µM | NCI-H522 > 100 µM | IGROV-1 > 100 µM

O=C1NCCS(=O)(=O)N[C@@H](CC2=CC=CCC2)C(=O)N2CCCC12 (some centres undefined)
inactive: TK-10 > 100 µM | SK-MEL-2 > 100 µM | SW-620 > 100 µM | SK-OV-3 > 100 µM | HOP-92 > 100 µM | HCC 2998 > 100 µM | SK-MEL-5 > 100 µM | SK-MEL-28 > 100 µM | OVCAR-3 > 100 µM | U-251 > 100 µM | UACC-257 > 100 µM | HCT-116 > 100 µM | SR > 100 µM | SNB-75 > 100 µM | NCI-H23 > 100 µM | NCI-H522 > 100 µM | IGROV-1 > 100 µM

CC(=O)OCC(=O)OC[C@H](OCc1ccccc1)[C@@H]1[C@H](OC(C)=O)C(=O)N1Cc1ccccc1
inactive: TK-10 > 100 µM | MDA-N > 100 µM | SK-MEL-2 > 100 µM | SW-620 > 100 µM | SK-OV-3 > 100 µM | HOP-92 > 100 µM | SK-MEL-5 > 100 µM | SK-MEL-28 > 100 µM | OVCAR-3 > 100 µM | U-251 > 100 µM | UACC-257 > 100 µM | DU-145 > 100 µM | HCT-116 > 100 µM | SR > 100 µM | SNB-75 > 100 µM | NCI-H23 > 100 µM | IGROV-1 > 100 µM

CC[n+]1cnc(N)c2c(-c3ccc(Cl)cc3)cn(-c3ccc(C)cc3)c21
inactive: TK-10 17.6 µM | MDA-N 12.5 µM | SK-MEL-2 18.7 µM | SW-620 15.3 µM | SK-OV-3 15.4 µM | HOP-92 11.2 µM | HCC 2998 4.33 µM | SK-MEL-5 10.3 µM | SK-MEL-28 9.33 µM | OVCAR-3 9.38 µM | U-251 11.9 µM | UACC-257 2.82 µM | DU-145 17.9 µM | HCT-116 9.4 µM | SR 4.6 µM | SNB-75 3.56 µM | NCI-H23 19.1 µM | NCI-H522 15.5 µM | IGROV-1 13.1 µM

Cc1ccc(C2=Nc3ccccc3NC(=O)C2)cc1
inactive: TK-10 > 100 µM | SK-MEL-2 > 100 µM | SW-620 27.7 µM | SK-OV-3 > 100 µM | HOP-92 26.9 µM | HCC 2998 > 100 µM | SK-MEL-5 > 100 µM | SK-MEL-28 > 100 µM | OVCAR-3 > 100 µM | U-251 32.2 µM | UACC-257 > 100 µM | HCT-116 > 100 µM | SR > 100 µM | SNB-75 43.8 µM | NCI-H23 > 100 µM | NCI-H522 98.4 µM | IGROV-1 > 100 µM

CC1OC(n2cc(F)c(=O)[nH]c2=O)C=CC1=O (centres undefined)
inactive: TK-10 17 µM | SK-MEL-2 15.1 µM | SW-620 18.8 µM | SK-OV-3 29 µM | HOP-92 17.7 µM | HCC 2998 17.8 µM | SK-MEL-5 17.4 µM | SK-MEL-28 17.7 µM | OVCAR-3 16 µM | U-251 14.8 µM | UACC-257 17.9 µM | HCT-116 16.3 µM | SR 21.5 µM | SNB-75 17.9 µM | NCI-H23 83 µM | NCI-H522 9.38 µM | IGROV-1 29.8 µM

Cc1ccc(SCC(CSCCO)OCn2cnc3c2N=C(N)NC32OCCO2)cc1 (centres undefined)
inactive: TK-10 > 100 µM | MDA-N > 100 µM | SK-MEL-2 > 100 µM | SW-620 > 100 µM | SK-OV-3 > 100 µM | HOP-92 > 100 µM | HCC 2998 > 100 µM | SK-MEL-5 > 100 µM | SK-MEL-28 > 100 µM | OVCAR-3 > 100 µM | U-251 > 100 µM | UACC-257 > 100 µM | DU-145 > 100 µM | HCT-116 > 100 µM | SR > 100 µM | SNB-75 > 100 µM | NCI-H23 > 100 µM | NCI-H522 > 100 µM | IGROV-1 > 100 µM

O=c1[nH]nc(Cc2ccccc2)n1/N=C/c1ccco1
inactive: BT-549 > 100 µM | SK-MEL-2 > 100 µM | SW-620 > 100 µM | SK-OV-3 > 100 µM | HCC 2998 > 100 µM | SK-MEL-28 > 100 µM | OVCAR-3 > 100 µM | U-251 > 100 µM | UACC-257 > 100 µM | DU-145 > 100 µM | HCT-116 > 100 µM | SNB-75 > 100 µM | NCI-H23 > 100 µM

CN(C)c1nc(Cl)c2c(-c3ccccc3)c(-c3ccccc3)oc2n1
inactive: BT-549 29.7 µM | TK-10 > 100 µM | SW-620 93.5 µM | SK-OV-3 58.3 µM | HOP-92 81.5 µM | HCC 2998 64.6 µM | SK-MEL-5 41.7 µM | SK-MEL-28 > 100 µM | U-251 > 100 µM | UACC-257 > 100 µM | DU-145 52.4 µM | HCT-116 31.2 µM | SR 21.8 µM | SNB-75 35.8 µM | NCI-H23 41.3 µM | NCI-H522 17.5 µM | IGROV-1 80.7 µM

CSC1NC=Nc2c1sc(=S)n2-c1ccccc1 (centres undefined)
inactive: TK-10 > 100 µM | SK-MEL-2 > 100 µM | SW-620 > 100 µM | SK-OV-3 > 100 µM | HOP-92 83.8 µM | HCC 2998 > 100 µM | SK-MEL-5 > 100 µM | SK-MEL-28 > 100 µM | OVCAR-3 54.1 µM | U-251 > 100 µM | UACC-257 > 100 µM | HCT-116 > 100 µM | SR > 100 µM | SNB-75 28.4 µM | NCI-H23 > 100 µM | NCI-H522 > 100 µM | IGROV-1 > 100 µM

Nc1cccc(S(=O)(=O)Nc2nnc(S(N)(=O)=O)s2)c1
inactive: BT-549 > 100 µM | TK-10 > 100 µM | SK-MEL-2 > 100 µM | SW-620 > 100 µM | SK-OV-3 > 100 µM | HOP-92 > 100 µM | HCC 2998 > 100 µM | SK-MEL-5 > 100 µM | SK-MEL-28 > 100 µM | OVCAR-3 > 100 µM | U-251 > 100 µM | DU-145 > 100 µM | HCT-116 > 100 µM | SR > 100 µM | SNB-75 > 100 µM | NCI-H23 > 100 µM | NCI-H522 > 100 µM | IGROV-1 > 100 µM

CO/N=C/c1cc(OC)c(OC)c(OC)c1
inactive: TK-10 > 100 µM | SK-MEL-2 > 100 µM | SW-620 > 100 µM | SK-OV-3 > 100 µM | HOP-92 > 100 µM | HCC 2998 > 100 µM | SK-MEL-5 > 100 µM | SK-MEL-28 > 100 µM | OVCAR-3 > 100 µM | U-251 > 100 µM | UACC-257 > 100 µM | HCT-116 > 100 µM | SR > 100 µM | SNB-75 > 100 µM | NCI-H23 > 100 µM | NCI-H522 > 100 µM | IGROV-1 > 100 µM

C[C@@H](C1CC[C@H]2[C@@H]3[C@@H]4O[C@@H]4[C@@]4(O)CC=CC(=O)[C@]4(C)[C@H]3C[C@H](O)[C@]12C)[C@H]1C[C@]2(C)O[C@]2(C)C(=O)O1 (some centres undefined)
inactive: TK-10 > 100 µM | MDA-N > 100 µM | SK-MEL-2 > 100 µM | SW-620 > 100 µM | SK-OV-3 > 100 µM | HOP-92 > 100 µM | HCC 2998 > 100 µM | SK-MEL-5 > 100 µM | SK-MEL-28 > 100 µM | OVCAR-3 > 100 µM | U-251 > 100 µM | UACC-257 > 100 µM | DU-145 > 100 µM | HCT-116 > 100 µM | SNB-75 > 100 µM | NCI-H23 > 100 µM | NCI-H522 > 100 µM | IGROV-1 > 100 µM

O=C1CC(c2cccc(Cl)c2)Oc2ccccc21 (centres undefined)
inactive: TK-10 > 10 µM | SK-MEL-2 19.9 µM | SW-620 18.3 µM | SK-OV-3 20.9 µM | HOP-92 15.2 µM | HCC 2998 15.4 µM | SK-MEL-5 17.9 µM | SK-MEL-28 18.6 µM | U-251 25.5 µM | UACC-257 16.9 µM | DU-145 17.7 µM | HCT-116 15.9 µM | SNB-75 22.6 µM | NCI-H23 10.2 µM | IGROV-1 15 µM
